Test results reported in the NIST ThermoML archive (doi:10.1016/j.jct.2013.09.010).
Values joined by “and” are separate entries in the source; they are usually repeats but may differ in a detail not shown here. Equal entries are not always repeated.

Columns and labels:
[1] = molar heat capacity at constant pressure; conditions: 101 kPa, Liquid, Small sample (50 mg) DSC
[2] = Liquid, Vibrating tube method

CCCC(=O)[O-].C[NH2+]CCO [N-methyl-2-hydroxyethylammonium butanoate]
[1]
Conditions	molar heat capacity at constant pressure
286.15 K	357.3 J/K/mol
287.15 K	358.4 J/K/mol
288.15 K	357 J/K/mol
290.15 K	358.9 J/K/mol
291.15 K	360.7 J/K/mol
292.15 K	356.8 J/K/mol
293.15 K	358.6 J/K/mol
294.15 K	361 J/K/mol and 360.1 J/K/mol
295.15 K	358.1 J/K/mol and 360.9 J/K/mol
296.15 K	361.7 J/K/mol and 357.1 J/K/mol
297.15 K	362.7 J/K/mol and 358.9 J/K/mol
298.15 K	363.2 J/K/mol and 359.6 J/K/mol
299.15 K	364 J/K/mol and 360.7 J/K/mol
300.15 K	364.6 J/K/mol and 361.2 J/K/mol
301.15 K	361.7 J/K/mol and 365.3 J/K/mol
302.15 K	362.2 J/K/mol and 365.8 J/K/mol
303.15 K	362.3 J/K/mol and 366.4 J/K/mol
304.15 K	362.8 J/K/mol and 367.1 J/K/mol
305.15 K	363.3 J/K/mol and 367.6 J/K/mol
306.15 K	363.8 J/K/mol and 368 J/K/mol
307.15 K	364.3 J/K/mol and 368.5 J/K/mol
308.15 K	364.8 J/K/mol and 368.9 J/K/mol
309.15 K	364.9 J/K/mol and 369.4 J/K/mol
310.15 K	365.4 J/K/mol and 369.7 J/K/mol
311.15 K	365.8 J/K/mol and 370.3 J/K/mol
312.15 K	366.4 J/K/mol and 370.8 J/K/mol
313.15 K	367.2 J/K/mol and 371.5 J/K/mol
314.15 K	368 J/K/mol and 372.1 J/K/mol
315.15 K	368.7 J/K/mol and 372.8 J/K/mol
316.15 K	369.2 J/K/mol and 373.6 J/K/mol
317.15 K	369.5 J/K/mol and 374.3 J/K/mol
318.15 K	369.7 J/K/mol and 374.7 J/K/mol
319.15 K	370 J/K/mol and 375.4 J/K/mol
320.15 K	370.2 J/K/mol and 375.7 J/K/mol
321.15 K	370.7 J/K/mol and 376.2 J/K/mol
322.15 K	371.2 J/K/mol and 376.9 J/K/mol
323.15 K	371.5 J/K/mol and 377.5 J/K/mol
324.15 K	372.1 J/K/mol and 378.2 J/K/mol
325.15 K	372.8 J/K/mol and 378.7 J/K/mol
326.15 K	373.8 J/K/mol and 379.3 J/K/mol
327.15 K	374.7 J/K/mol and 380.1 J/K/mol
328.15 K	375.4 J/K/mol and 380.6 J/K/mol
329.15 K	375.7 J/K/mol and 381.3 J/K/mol
330.15 K	375.6 J/K/mol and 381.8 J/K/mol
331.15 K	375.4 J/K/mol and 382.1 J/K/mol
332.15 K	375.2 J/K/mol and 382.9 J/K/mol
333.15 K	374.9 J/K/mol and 383.1 J/K/mol
334.15 K	375.2 J/K/mol and 383.9 J/K/mol
335.15 K	375.7 J/K/mol and 384.7 J/K/mol
336.15 K	377.2 J/K/mol

mass density [kg/m3], [2]
Conditions	298.15 K	308.15 K	318.15 K	328.15 K	338.15 K	348.15 K	358.15 K
100 kPa	1035.29	1028.57	1021.88	1015.21	1008.57	1001.95	995.35
5000 kPa	1037.49	1030.87	1024.28	1017.71	1011.17	1004.66	998.16
10000 kPa	1039.66	1033.14	1026.66	1020.2	1013.77	1007.36	1000.98
15000 kPa	1041.88	1035.43	1029.02	1022.64	1016.3	1010	1003.73
20000 kPa	1043.97	1037.61	1031.28	1024.99	1018.73	1012.5	1006.31
25000 kPa	1046.02	1039.73	1033.49	1027.31	1021.17	1015.08	1009.04
